According to publication PMC10054477, “Design, Synthesis, and Biological Evaluation of Sulfonamide Methoxypyridine Derivatives as Novel PI3K/mTOR Dual Inhibitors” (Pharmaceuticals, 2023):
Values belong to the molecule of their own block, whether it stands above or below them.

How the values were obtained:
HCT-116 cells [1] = test: Flow cytometry analysis of cell cycle via PI staining; type: cell-based; conditions: 24 h, dose-dependent
Experimental: (§1) Hoechst 33342/PI staining was used to detect cell survival and apoptosis, and flow cytometry (FACS Verse, BD, Piscataway, NJ, USA) was used to measure cell cycle and survival. Briefly, HCT-116 cells were seeded in 6-well plates and cultured with 22c at different concentrations for 24 h. As for the Hoechst 33342/PI staining assay, staining buffer with Hoechst 33342/PI was added into each plate and incubated at 4 °C for 30 min. After washing with PBS, the stained cells were observed by fluorescence microscope (IX73, Olympus, Tokyo, Japan). As for detection of cell apoptosis by flow cytometry, cells were stained with Annexin V-FITC/PI. As for cell cycle assay, the cells were fixed with 70% ethanol at 4 °C overnight, and stained with PI/RNase solution for 30 min at 37 °C. All assays were measured by flow cytometry and analyzed by Flowjo 7.6.

PI3Kα = molecular target: T1, PI3Kα (Homo sapiens, UniProt P42336); test: ADP-Glo kinase assay, PI3Kα enzyme inhibition; type: biochemical; conditions: for inhibition at 0.001 µM: at 1 nM
T1 construct: purchased SignalChem P27-122DH
Experimental: The enzymatic inhibitory assays of all target compounds against PI3Kα were performed with the ADP-Glo assay (Promega, Madison, WI, USA, catalog No. V9102/3). Briefly, compounds were continuously diluted to a certain concentration. […] The mixture was added to a 96-well plate and incubated in a dark place at ambient temperature for 40 min. Then, the kinase reaction was stopped by adding of ADP-Glo reagent and the plate was incubated again at ambient temperature for another 40 min. The kinase detection reagent was added and the signal was collected via PerkinElmer Envision plate reader (PE, Boston, MA, USA).

HCT-116 cells [2] = test: CCK-8 cell viability assay, HCT-116; type: cell-based; conditions: Homo sapiens, mean (n = 3)
Experimental: (§2) MCF-7 and HCT-116 cells were purchased from the Meilunbio Biotechnology Co., Ltd. (Dalian, China). Cells were cultured at 37 °C with 5% CO2, using DMEM or RPMI 1640 medium (Meilunbio, Dalian, China) with 10% (v/v) fetal bovine serum (Gibco, San Diego, CA, USA) and 1% (v/v) penicillin and streptomycin (Meilunbio, Dalian, China). CCK-8 assay was used to determine the inhibitory effect in vitro. In short, cells were incubated into 96-well plates at the rate of 5000 cells per well. After 24 h of incubation, 100 μL medium was added, which contained a specific concentration of the test compound. After 72 h, 10 μL CCK-8 regent was added and the plate was incubated at 37 °C, 5% CO2 for 1 h. The optical density of each hole at 450 nm was read by a BioTek TS-800 microplate reader. GraphPad Prism 9.3.1 software was used to calculate the IC50 value.

[3] = system: phosphorylation of AKT in HCT-116 cells; test: Western blot of AKT phosphorylation; type: cell-based; conditions: 24 h
Experimental: HCT-116 cells were cultured in 100 mm culture dish to 70~80%, and treated with compound 22c at a specified concentration for 24 h. Then, the cells were scraped off with cell scraper, collected into a precooled 1.5 mL centrifuge tube, and lysed with RIPA buffer (Cwbio, Taizhou, China) containing PMSF (1 mM), NaF (1 mM), Na3VO4 (1 mM). The cells were lysed at 4 °C for 30 min, and the concentration of protein was determined by the BCA assay kit (Meilunbio, Dalian, China). Then the protein samples (40 μg) were used to conduct SDS-PAGE electrophoresis (Electrophoresis equipment: BIO-RAD, Hercules, CA, USA; Prefabricated-gel: ACE, Shanghai, China). After electrophoresis, the protein was transferred to PVDF membranes ([…], Millipore, USA). It was sealed with 5% non-fat milk for 1.5 h, washed with TBST for 4 times, and incubated with primary antibody at 4 °C overnight. Then, membranes were recovered to room temperature, washed with TBST for 4 times and incubated with secondary antibody (Huabio, Hangzhou, China) at room temperature for 1.5 h. After incubating, the membranes were washed with TBST for 4 times, visualized with an Amersham Imager 680 (GE, Windsor, CT, USA) through the enhanced ECL detection kit (Meilunbio, Dalian, China). […]

mTOR = molecular target: T2, mTOR (Homo sapiens, UniProt P42345); test: LANCE Ultra assay, mTOR inhibition; type: biochemical; conditions: mean (n = 2)
T2 construct: purchased Millipore 14-770
Experimental: The inhibitory activity of 22c on mTOR was determined by LANCE Ultra assay. In short, to a solution of kinase buffer, compound solution, ULight-4E-BP1 (Thr37/46) peptide substrate (PE, Catalog No. TRF0128-M), ATP, and mTOR protein (Millipore, Burlington, MA, USA, Catalog No. 14-770) were added. It was transferred to a 384-well plate and incubated at room temperature for 30 min. The LANCE detection buffer was added, which contained EDTA and Eu-antiphos-4E-BP1 (Thr37/46) antibody (PE, catalog number TRF0216-M). The plate was balanced at ambient temperature for 1 h, and the signal was detected via PerkinElmer Envision plate reader.

HCT-116 cells [4] = test: Hoechst 33342/PI staining of survival and apoptosis; type: cell-based; conditions: 24 h
Experimental: as §1

MCF-7 cells = test: CCK-8 cell viability assay, MCF-7; type: cell-based; conditions: Homo sapiens, MCF7, 72 h, mean (n = 3)
Experimental: as §2

HCT-116 cells [5] = test: Flow cytometry analysis of apoptosis via Annexin V-FITC/PI staining; type: cell-based; conditions: 24 h
Experimental: as §1

PI3Kγ = molecular target: PI3Kγ; parameters: method as in PMID 30582807; conditions: cited from earlier work
PI3K = system: PI3K; parameters: method as in PMID 21388141; conditions: read-out: enzyme inhibition; cited from earlier work

T1 sequence (P42336 whole entry): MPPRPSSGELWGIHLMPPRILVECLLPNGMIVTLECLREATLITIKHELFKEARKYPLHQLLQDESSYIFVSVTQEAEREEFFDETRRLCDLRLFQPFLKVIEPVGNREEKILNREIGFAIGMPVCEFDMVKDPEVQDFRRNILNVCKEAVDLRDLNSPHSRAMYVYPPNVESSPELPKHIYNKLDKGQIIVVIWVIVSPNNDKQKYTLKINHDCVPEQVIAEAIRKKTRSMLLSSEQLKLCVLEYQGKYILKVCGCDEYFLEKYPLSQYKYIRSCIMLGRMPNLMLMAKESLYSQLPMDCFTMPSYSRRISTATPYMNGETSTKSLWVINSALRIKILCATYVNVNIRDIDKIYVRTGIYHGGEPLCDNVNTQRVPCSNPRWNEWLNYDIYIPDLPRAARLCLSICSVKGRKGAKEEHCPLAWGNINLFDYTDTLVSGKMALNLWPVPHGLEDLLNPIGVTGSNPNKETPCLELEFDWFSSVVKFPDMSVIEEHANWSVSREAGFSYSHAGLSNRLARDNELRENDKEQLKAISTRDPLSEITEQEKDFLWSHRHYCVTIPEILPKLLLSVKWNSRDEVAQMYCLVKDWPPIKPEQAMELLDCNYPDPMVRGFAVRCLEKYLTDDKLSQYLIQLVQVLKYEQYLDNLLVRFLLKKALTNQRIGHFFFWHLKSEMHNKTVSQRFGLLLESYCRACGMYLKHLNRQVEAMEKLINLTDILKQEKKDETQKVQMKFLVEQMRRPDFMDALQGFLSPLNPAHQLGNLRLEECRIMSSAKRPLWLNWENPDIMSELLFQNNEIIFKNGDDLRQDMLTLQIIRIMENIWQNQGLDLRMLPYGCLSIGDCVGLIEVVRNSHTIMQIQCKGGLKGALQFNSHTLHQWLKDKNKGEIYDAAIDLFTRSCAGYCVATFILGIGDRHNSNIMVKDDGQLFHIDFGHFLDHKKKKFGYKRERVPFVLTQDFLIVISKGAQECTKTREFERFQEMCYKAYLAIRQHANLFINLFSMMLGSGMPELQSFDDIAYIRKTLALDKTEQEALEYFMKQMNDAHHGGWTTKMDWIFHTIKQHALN
T1 sequence (P27986 whole entry partner): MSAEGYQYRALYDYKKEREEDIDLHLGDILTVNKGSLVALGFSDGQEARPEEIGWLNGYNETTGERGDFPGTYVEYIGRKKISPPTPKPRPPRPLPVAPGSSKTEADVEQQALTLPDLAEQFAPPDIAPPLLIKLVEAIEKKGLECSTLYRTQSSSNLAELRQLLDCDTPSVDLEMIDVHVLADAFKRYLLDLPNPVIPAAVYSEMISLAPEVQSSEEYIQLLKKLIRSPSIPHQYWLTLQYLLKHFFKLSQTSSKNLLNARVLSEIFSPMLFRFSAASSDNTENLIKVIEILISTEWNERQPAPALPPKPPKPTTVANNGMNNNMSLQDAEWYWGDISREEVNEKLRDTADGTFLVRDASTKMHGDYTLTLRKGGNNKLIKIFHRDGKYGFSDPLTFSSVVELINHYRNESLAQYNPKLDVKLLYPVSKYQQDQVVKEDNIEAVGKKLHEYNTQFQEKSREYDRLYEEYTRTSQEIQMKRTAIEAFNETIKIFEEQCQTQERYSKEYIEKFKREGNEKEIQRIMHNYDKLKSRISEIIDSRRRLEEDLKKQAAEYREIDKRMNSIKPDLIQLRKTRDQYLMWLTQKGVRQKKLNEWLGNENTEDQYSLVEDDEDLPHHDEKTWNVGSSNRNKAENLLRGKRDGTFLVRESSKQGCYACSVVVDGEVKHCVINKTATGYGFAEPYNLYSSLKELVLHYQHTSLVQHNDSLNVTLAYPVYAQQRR
T2 sequence (P42345 1362-2549 limits assumed): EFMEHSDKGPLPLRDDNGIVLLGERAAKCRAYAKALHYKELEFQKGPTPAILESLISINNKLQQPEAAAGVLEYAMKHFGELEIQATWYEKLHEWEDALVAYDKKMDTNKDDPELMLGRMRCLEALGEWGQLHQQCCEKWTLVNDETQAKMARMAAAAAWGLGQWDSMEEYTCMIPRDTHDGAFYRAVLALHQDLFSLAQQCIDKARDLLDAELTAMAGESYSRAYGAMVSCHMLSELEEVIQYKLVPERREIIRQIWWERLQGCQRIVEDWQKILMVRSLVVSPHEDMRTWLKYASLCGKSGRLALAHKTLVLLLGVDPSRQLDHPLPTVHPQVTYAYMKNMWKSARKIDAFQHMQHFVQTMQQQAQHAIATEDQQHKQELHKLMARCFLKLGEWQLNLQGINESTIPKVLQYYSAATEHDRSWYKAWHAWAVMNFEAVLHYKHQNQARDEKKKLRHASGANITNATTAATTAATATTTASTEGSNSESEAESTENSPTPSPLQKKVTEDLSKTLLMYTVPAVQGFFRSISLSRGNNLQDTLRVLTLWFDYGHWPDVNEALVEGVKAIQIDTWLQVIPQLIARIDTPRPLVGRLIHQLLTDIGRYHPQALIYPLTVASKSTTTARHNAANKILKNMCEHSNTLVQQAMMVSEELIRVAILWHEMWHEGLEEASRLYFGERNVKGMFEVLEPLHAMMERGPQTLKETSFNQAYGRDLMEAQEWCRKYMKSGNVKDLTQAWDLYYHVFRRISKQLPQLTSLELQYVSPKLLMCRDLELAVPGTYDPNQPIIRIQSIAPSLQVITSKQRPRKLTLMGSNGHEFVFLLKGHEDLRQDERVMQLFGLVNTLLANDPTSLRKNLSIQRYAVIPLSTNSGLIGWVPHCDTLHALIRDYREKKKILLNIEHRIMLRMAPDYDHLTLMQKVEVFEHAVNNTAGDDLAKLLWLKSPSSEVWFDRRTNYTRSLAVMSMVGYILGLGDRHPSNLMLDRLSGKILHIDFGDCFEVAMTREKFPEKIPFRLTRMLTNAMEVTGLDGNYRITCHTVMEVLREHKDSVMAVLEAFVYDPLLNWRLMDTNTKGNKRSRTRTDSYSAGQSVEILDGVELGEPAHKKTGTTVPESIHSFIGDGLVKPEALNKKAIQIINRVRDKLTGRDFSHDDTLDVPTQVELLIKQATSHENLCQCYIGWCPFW

inhibition at 0.001 µM (PI3Kα; Table 3): 82%
IC50 (PI3Kα; mean (n = 2)): 0.22 nM
IC50 (HCT-116 cells [2]; Table 3, 72 h): 0.02 ± 0.01 µM
IC50 (mTOR): 23 nM
IC50 (MCF-7 cells; Table 3): 0.13 ± 0.03 µM
Compound: COc1ncc(-c2ccc3nccc(-c4ncc(C(=O)NC(C)C)o4)c3c2)cc1NS(=O)(=O)c1ccc(F)cc1F [22c, 2-(6-(5-((2,4-difluorophenyl)sulfonamido)-6-methoxypyridin-3-yl)quinolin-4-yl)-N-isopropyloxazole-5-carboxamide]
cell cycle arrest (HCT-116 cells [1]): inhibited the cell cycle in G0/G1 phase
phosphorylation of AKT (Western blot) [3]: could block the phosphorylation process of AKT at low concentrations
apoptosis and necrosis (Hoechst33342/PI staining) (HCT-116 cells [4]): could significantly affect apoptosis and necrosis of HCT-116 cells
Q1 of Annexin V-FITC/PI plot (HCT-116 cells [5]; 0.25 μM): 1.95
Q2 of Annexin V-FITC/PI plot (HCT-116 cells [5]; 0.25 μM): 14.1
Q3 of Annexin V-FITC/PI plot (HCT-116 cells [5]; 0.25 μM): 0.080
Q4 of Annexin V-FITC/PI plot (HCT-116 cells [5]; 0.25 μM): 83.9
Q1 of Annexin V-FITC/PI plot (HCT-116 cells [5]; 1 μM): 3.13
Q2 of Annexin V-FITC/PI plot (HCT-116 cells [5]; 1 μM): 38.0
Q3 of Annexin V-FITC/PI plot (HCT-116 cells [5]; 1 μM): 0.14
Q4 of Annexin V-FITC/PI plot (HCT-116 cells [5]; 1 μM): 58.7
Q1 of Annexin V-FITC/PI plot (HCT-116 cells [5]; 4 μM): 2.69
Q2 of Annexin V-FITC/PI plot (HCT-116 cells [5]; 4 μM): 58.3
Q3 of Annexin V-FITC/PI plot (HCT-116 cells [5]; 4 μM): 0.17
Q4 of Annexin V-FITC/PI plot (HCT-116 cells [5]; 4 μM): 38.9
apoptosis (flow cytometry), in words (HCT-116 cells [5]; dose-dependent): induce apoptosis

inhibition at 0.001 µM (PI3Kα; Table 1): 89%
IC50 (HCT-116 cells [2]; Table 1, 72 h): 0.02 ± 0.01 µM
IC50 (MCF-7 cells; Table 1): > 4 µM
Compound: COc1ncc(-c2ccc3nccc(-c4ccnnc4)c3c2)cc1NS(=O)(=O)c1ccc(F)cc1F [Omipalisib, reference compound]

IC50 (HCT-116 cells [2]; Table 1, 72 h): 0.19 ± 0.05 µM
IC50 (mTOR): 110 nM
IC50 (MCF-7 cells; Table 1): 1.76 ± 0.44 µM
Compound: CCOC(=O)c1cnc2ccc(-c3cncc(NS(=O)(=O)c4ccccc4)c3)cn12 [HS-173, reference compound]

inhibition at 0.001 µM (PI3Kα; Table 1): 10%
IC50 (HCT-116 cells [2]; Table 1, 72 h): > 1 µM
IC50 (MCF-7 cells; Table 1): > 1 µM
Compound: COc1ncc(-c2ccc3c(c2)sc2c(NCCCN4CCOCC4)ncnc23)cc1NS(=O)(=O)c1ccc(F)cc1F [11j, N-(2-methoxy-5-(4-((3-morpholinopropyl)amino)benzo[4,5]thieno[3,2-d]pyrimidin-7-yl)pyridin-3-yl)-2,4-difluorobenzenesulfonamide]
